According to PubChem BioAssay AID1919010 (Molecular Pharmacology Branch, DTP, NCI, 2023):
Where “and” joins values, the source holds several entries; their conditions need not be identical. Equal values may be shown once.

System: Hs578T complex spheroid growth, percent test/control
Assay: Anticancer human tumor Hs578T cell line growth inhibition [AhR];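 note: luminescent viability signal as a proxy for spheroid growth; spheroids exposed to agents for one week after three days of growth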
Details: for viability, T/C: stronger effect = lower value
How it was run: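 Spheroids combined tumor cells with HUVEC endothelial cells and human MSCs as stroma. AhR antagonists were paired with standard or investigational drugs, each dosed in half-log steps down from near clinical Cmax, or from 10 microM where Cmax was unknown.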

[1] = curve of first compound, second compound 0.1 µM
[2] = curve of first compound, second compound 0.316 µM
[3] = curve of first compound, second compound 1 µM
[4] = curve of first compound, second compound 3.16 µM
[5] = curve of first compound, second compound 10 µM
[6] = second compound 0.1 µM, first compound 0.00316 µM
[7] = second compound 0.1 µM, first compound 0.01 µM
[8] = second compound 0.1 µM, first compound 0.0316 µM
[9] = second compound 0.1 µM, first compound 0.1 µM
[10] = second compound 0.316 µM, first compound 0.00316 µM
[11] = second compound 0.316 µM, first compound 0.01 µM
[12] = second compound 0.316 µM, first compound 0.0316 µM
[13] = second compound 0.316 µM, first compound 0.1 µM
[14] = second compound 1 µM, first compound 0.00316 µM
[15] = second compound 1 µM, first compound 0.01 µM
[16] = second compound 1 µM, first compound 0.0316 µM
[17] = second compound 1 µM, first compound 0.1 µM
[18] = second compound 3.16 µM, first compound 0.00316 µM
[19] = second compound 3.16 µM, first compound 0.01 µM
[20] = second compound 3.16 µM, first compound 0.0316 µM
[21] = second compound 3.16 µM, first compound 0.1 µM
[22] = second compound 10 µM, first compound 0.00316 µM
[23] = second compound 10 µM, first compound 0.01 µM
[24] = second compound 10 µM, first compound 0.0316 µM
[25] = second compound 10 µM, first compound 0.1 µM
[26] = second compound 0.1 µM, first compound 0.316 µM
[27] = second compound 0.1 µM, first compound 1 µM
[28] = second compound 0.1 µM, first compound 3.16 µM
[29] = second compound 0.1 µM, first compound 10 µM
[30] = second compound 0.316 µM, first compound 0.316 µM
[31] = second compound 0.316 µM, first compound 1 µM
[32] = second compound 0.316 µM, first compound 3.16 µM
[33] = second compound 0.316 µM, first compound 10 µM
[34] = second compound 1 µM, first compound 0.316 µM
[35] = second compound 1 µM, first compound 1 µM
[36] = second compound 1 µM, first compound 3.16 µM
[37] = second compound 1 µM, first compound 10 µM
[38] = second compound 3.16 µM, first compound 0.316 µM
[39] = second compound 3.16 µM, first compound 1 µM
[40] = second compound 3.16 µM, first compound 3.16 µM
[41] = second compound 3.16 µM, first compound 10 µM
[42] = second compound 10 µM, first compound 0.316 µM
[43] = second compound 10 µM, first compound 1 µM
[44] = second compound 10 µM, first compound 3.16 µM
[45] = second compound 10 µM, first compound 10 µM

Row | Structure (SMILES) | IC50 [1] [µM] | IC50 [2] [µM] | IC50 [3] [µM] | IC50 [4] [µM] | IC50 [5] [µM] | viability, T/C [8] [%] | viability, T/C [9] [%] | viability, T/C [12] [%] | viability, T/C [13] [%] | viability, T/C [16] [%] | viability, T/C [17] [%] | viability, T/C [20] [%] | viability, T/C [21] [%] | viability, T/C [24] [%] | viability, T/C [25] [%] | viability, T/C [26] [%] | viability, T/C [27] [%] | viability, T/C [30] [%] | viability, T/C [31] [%] | viability, T/C [34] [%] | also measured
1 | COc1cc(Nc2ncc3c(n2)-c2ccc(Cl)cc2C(c2c(F)cccc2OC)=NC3)ccc1C(=O)O | – | – | – | – | – | – | – | – | – | – | – | – | – | – | – | – | – | – | – | – | viability, T/C (compound 0.0316 µM): 78.2% and 84.4% and 89.2%; viability, T/C (compound 0.1 µM): 92.6% and 82.2% and 94%; viability, T/C (compound 0.316 µM): 97% and 80.2% and 85.2%; viability, T/C (compound 1 µM): 96.8% and 87% and 87.8%; viability, T/C (compound 3.16 µM): 89.2% and 70.9% and 81%; viability, T/C (compound 10 µM): 47.3% and 34.7% and 44.9%; IC50 (curve of compound): 9.28 µM and 6.15 µM and 8.47 µM
2 | Nc1ncn(C2CC(O)C(CO)O2)c(=O)n1 (configuration not stated) + CC(CO)NC(=O)c1cc(-c2ccc(Cl)cc2)nn(-c2cnn(C)c2)c1=O | > 1 | > 1 | > 1 | > 1 | > 1 | 118 | 107 | 110 | 114 | 103 | 102 | 117 | 114 | 105 | 99.6 | 103 | 95.5 | 120 | 109 | 107 | viability, T/C [6]: 109%; viability, T/C [7]: 107%; viability, T/C [10]: 106%; viability, T/C [11]: 114%; viability, T/C [14]: 117%; viability, T/C [15]: 108%; viability, T/C [35]: 96%; viability, T/C [18]: 109%; viability, T/C [19]: 109%; viability, T/C [38]: 101%; viability, T/C [39]: 97%; viability, T/C [22]: 96.9%; viability, T/C [23]: 100%; viability, T/C [42]: 92.9%; viability, T/C [43]: 100%
3 | Nc1ccccc1NC(=O)c1ccc(CNC(=O)OCc2cccnc2)cc1 + CC(CO)NC(=O)c1cc(-c2ccc(Cl)cc2)nn(-c2cnn(C)c2)c1=O | 1.61 | 1.7 | 1.66 | 1.72 | 1.26 | 124 | 122 | 111 | 118 | 121 | 118 | 115 | 118 | 111 | 106 | 108 | 68.3 | 111 | 65.8 | 112 | viability, T/C [28]: 24%; viability, T/C [29]: 1.8%; viability, T/C [32]: 30%; viability, T/C [33]: 1.83%; viability, T/C [35]: 64.3%; viability, T/C [36]: 29.6%; viability, T/C [37]: 2.16%; viability, T/C [38]: 109%; viability, T/C [39]: 70.9%; viability, T/C [40]: 25.9%; viability, T/C [41]: 2.04%; viability, T/C [42]: 97.2%; viability, T/C [43]: 58.2%; viability, T/C [44]: 16%; viability, T/C [45]: 0.84%
4 | COc1cc(C2c3cc4c(cc3C(OC3OC5COC(C)OC5C(O)C3O)C3COC(=O)C23)OCO4)cc(OC)c1O (configuration not stated) + CC(CO)NC(=O)c1cc(-c2ccc(Cl)cc2)nn(-c2cnn(C)c2)c1=O | > 10 | > 10 | > 10 | > 10 | > 10 | 103 | 109 | 111 | 99.2 | 108 | 123 | 116 | 102 | 83.7 | 88.3 | 87.9 | 79.2 | 105 | 83.2 | 88.7 | viability, T/C [28]: 81%; viability, T/C [29]: 64.9%; viability, T/C [32]: 73.8%; viability, T/C [33]: 57.1%; viability, T/C [35]: 80.1%; viability, T/C [36]: 89.1%; viability, T/C [37]: 60.5%; viability, T/C [38]: 99.9%; viability, T/C [39]: 86.2%; viability, T/C [40]: 79.2%; viability, T/C [41]: 60.7%; viability, T/C [42]: 89.1%; viability, T/C [43]: 76.6%; viability, T/C [44]: 83.4%; viability, T/C [45]: 58.9%

More lines, main results first:

Row | IC50 [1] [µM] | IC50 [2] [µM] | IC50 [3] [µM] | IC50 [4] [µM] | IC50 [5] [µM] | Structure (SMILES) | viability, T/C [8] [%] | viability, T/C [9] [%] | viability, T/C [12] [%] | viability, T/C [13] [%] | viability, T/C [16] [%] | viability, T/C [17] [%] | viability, T/C [20] [%] | viability, T/C [21] [%] | viability, T/C [24] [%] | viability, T/C [25] [%] | viability, T/C [26] [%] | viability, T/C [27] [%] | viability, T/C [30] [%] | viability, T/C [31] [%] | viability, T/C [34] [%] | also measured
5 | > 0.1 | > 0.1 | > 0.1 | 0.0147 | < 0.000316 | CC[C@@]1(O)C(=O)OCc2c1cc1n(c2=O)Cc2cc3c(CN(C)C)c(O)ccc3nc2-1 + Cc1cncc(-c2nc(NCCc3c[nH]c4ccccc34)c3ncn(C(C)C)c3n2)c1 | 81.7 | 71.1 | 80.5 | 76.8 | 74.6 | 72.4 | 44.5 | 46.4 | 6.14 | 6.3 | – | – | – | – | – | viability, T/C (second compound 0.1 µM, first compound 0.000316 µM): 109%; viability, T/C (second compound 0.1 µM, first compound 0.001 µM): 112%; viability, T/C [6]: 95.3%; viability, T/C [7]: 91.8%; viability, T/C (second compound 0.316 µM, first compound 0.000316 µM): 113%; viability, T/C (second compound 0.316 µM, first compound 0.001 µM): 112%; viability, T/C [10]: 108%; viability, T/C [11]: 86.2%; viability, T/C (second compound 1 µM, first compound 0.000316 µM): 102%; viability, T/C (second compound 1 µM, first compound 0.001 µM): 121%; viability, T/C [14]: 98.2%; viability, T/C [15]: 86.9%; viability, T/C (second compound 3.16 µM, first compound 0.000316 µM): 68.3%; viability, T/C (second compound 3.16 µM, first compound 0.001 µM): 72.9%; viability, T/C [18]: 67.6%; viability, T/C [19]: 52.4%; viability, T/C (second compound 10 µM, first compound 0.000316 µM): 9.03%; viability, T/C (second compound 10 µM, first compound 0.001 µM): 8.61%; viability, T/C [22]: 7.61%; viability, T/C [23]: 6.12%
6 | > 10 | > 10 | > 10 | > 10 | > 10 | CC1(C)CCC(CN2CCN(c3ccc(C(=O)NS(=O)(=O)c4ccc(NCC5CCOCC5)c([N+](=O)[O-])c4)c(Oc4cnc5[nH]ccc5c4)c3)CC2)=C(c2ccc(Cl)cc2)C1 + CC(CO)NC(=O)c1cc(-c2ccc(Cl)cc2)nn(-c2cnn(C)c2)c1=O | 109 | 107 | 110 | 99.7 | 115 | 122 | 108 | 111 | 117 | 96.9 | 107 | 101 | 110 | 91.2 | 114 | viability, T/C [28]: 106%; viability, T/C [29]: 84.3%; viability, T/C [32]: 93%; viability, T/C [33]: 96.3%; viability, T/C [35]: 98.3%; viability, T/C [36]: 109%; viability, T/C [37]: 80%; viability, T/C [38]: 110%; viability, T/C [39]: 99.7%; viability, T/C [40]: 102%; viability, T/C [41]: 88.7%; viability, T/C [42]: 79.4%; viability, T/C [43]: 86%; viability, T/C [44]: 87.1%; viability, T/C [45]: 91.8%
7 | 1.98 | 2.15 | 1.82 | 0.46 | < 0.0316 | Nc1ccccc1NC(=O)c1ccc(CNC(=O)OCc2cccnc2)cc1 + Cc1cncc(-c2nc(NCCc3c[nH]c4ccccc34)c3ncn(C(C)C)c3n2)c1 | 118 | 115 | 126 | 116 | 109 | 106 | 72 | 69.9 | 4.97 | 4.48 | 115 | 80.9 | 116 | 87.5 | 107 | viability, T/C [28]: 28.6%; viability, T/C [29]: 2.58%; viability, T/C [32]: 30.9%; viability, T/C [33]: 2.84%; viability, T/C [35]: 76.5%; viability, T/C [36]: 25.1%; viability, T/C [37]: 2.17%; viability, T/C [38]: 55.5%; viability, T/C [39]: 36.5%; viability, T/C [40]: 10.7%; viability, T/C [41]: 0.49%; viability, T/C [42]: 2.94%; viability, T/C [43]: 3.5%; viability, T/C [44]: 0.48%; viability, T/C [45]: 0.4%
